Test results: patent US9365522B2, “Pyrazole amide derivative” (AMGEN INC., priority 2015, dated 2016)

target: T1, ligand binding domain of human ROR gamma (Homo sapiens, UniProt P51449); assay: ROR gamma reporter gene assay (GAL4-RORγ LBD luciferase, Dual-Glo); format: cell-based; conditions: HEK293T cells transfected with pM-ROR gamma, 8 concentrations 3.5 nM to 10.5 μM, 24 h incubation; read-out: result (pIC50, inhibition of RORγ transcriptional activity) (converted)
T1 construct: NM_001001523; expressed in transfected cells; host or cells: HEK293T
T1 sequence (P51449 247-497 isoform P51449-2): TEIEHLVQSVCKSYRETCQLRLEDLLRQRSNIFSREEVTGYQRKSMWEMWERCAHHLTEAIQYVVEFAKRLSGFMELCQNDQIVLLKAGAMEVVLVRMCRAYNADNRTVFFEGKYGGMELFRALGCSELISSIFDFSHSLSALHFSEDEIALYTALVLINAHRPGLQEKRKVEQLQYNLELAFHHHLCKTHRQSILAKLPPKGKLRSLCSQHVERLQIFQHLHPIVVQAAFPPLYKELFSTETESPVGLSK
Procedure, shortened: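 Inhibition of RORγ-driven transcription was measured in HEK293T cells expressing a GAL4 fusion of the human RORγ LBD (aa 247-497), with renilla luciferase as internal control. Cells in 10% charcoal-stripped serum received compound (3.5 nM–10.5 μM) for 24 h.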

First: O=C(c1cnn([C@H]2CC[C@H](C(=O)O)CC2)c1C(F)(F)F)N(Cc1ccc(F)cc1)CC(F)c1c(Cl)cccc1Cl (stereo partly drawn) [Example 91, trans-4-(4-((2-(2,6-dichlorophenyl)-2-fluoroethyl)(4-fluorobenzyl)carbamoyl) (trifluoromethyl)-1H-pyrazol-1-yl)cyclohexanecarboxylic acid]
Second: CC(CN(Cc1ccc(F)cc1)C(=O)c1cnn([C@H]2CC[C@H](C(=O)O)CC2)c1C(F)(F)F)c1c(Cl)cccc1Cl (stereo partly drawn) [Example 100, trans-4-(4-(2-(2,6-dichlorophenyl)propyl-((4-fluorophenyl)methyl)carbamoyl)-5-(trifluoromethyl)pyrazol-1-yl)cyclohexane-1-carboxylic acid]
The IC50 of the first is 54-fold lower: 4370 pM for the first, 234000 pM for the second.

Compared with O=C(CN(Cc1ccc(F)cc1)C(=O)c1cnn([C@H]2CC[C@H](C(=O)O)C2)c1C(F)(F)F)c1c(Cl)cncc1Cl [Example 92, (1S,3S)-3-(4-((2-(3,5-dichloropyridin-4-yl)-2-oxoethyl)-((4-fluorophenyl)methyl)carbamoyl)-5-(trifluoromethyl)pyrazol-1-yl)cyclopentane-1-carboxylic acid], O=C(c1cnn([C@H]2CC[C@H](C(=O)O)CC2)c1C(F)(F)F)N(Cc1ccc(F)cc1)CC(F)(F)c1c(Cl)cccc1Cl [Example 96, trans-4-(4-((2-(2,6-dichlorophenyl)-2,2-difluoroethyl)-((4-fluorophenyl)methyl)carbamoyl)-5-(trifluoromethyl)pyrazol-1-yl)cyclohexane-1-carboxylic acid] is 5.4-fold lower in IC50: 155000 pM for the first, 28800 pM for the second.

Going from CC(C)(C)CN(CC(=O)c1c(Cl)cc(F)cc1Cl)C(=O)c1cnn([C@H]2CC[C@](C)(C(=O)O)CC2)c1C(F)(F)F [Example 94, trans-4-(4-((2-(2,6-dichloro-4-fluorophenyl)-2-oxoethyl)-(2,2-dimethylpropyl)carbamoyl)-5-(trifluoromethyl)pyrazol-1-yl)-1-methylcyclohexane-1-carboxylic acid] to CC(C)(C)OCCN(CC(=O)c1c(Cl)cncc1Cl)C(=O)c1cnn([C@H]2CC[C@H](C(=O)O)CC2)c1C(F)(F)F [Example 95, trans-(4((2-(3,5-dichloropyridin-4-yl)-2-oxoethyl)-(2-((2-methylpropan-2-yl)oxy)ethyl)carbamoyl)-5-(trifluoromethyl)pyrazol-1-yl)cyclohexane-1-carboxylic acid], the IC50 rises from 8320 pM to 151000 pM (18-fold).

Compared with NC(=O)c1cc(Cl)c(C(=O)CN(Cc2cc(F)cc(F)c2)C(=O)c2cnn([C@H]3CC[C@H](C(=O)O)CC3)c2C(F)(F)F)c(Cl)c1 [Example 97, trans-4-(4-((2-(4-carbamoyl-2,6-dichlorophenyl)-2-oxoethyl)-((3,5 difluorophenyl)methyl)carbamoyl)-5-(trifluoromethyl)pyrazol-1-yl)cyclohexane-1-carboxylic acid], O=C(O)c1cc(Cl)c(C(=O)CN(Cc2cc(F)cc(F)c2)C(=O)c2cnn([C@H]3CC[C@H](C(=O)O)CC3)c2C(F)(F)F)c(Cl)c1 [Example 98, trans-4-(2-((1-(4-carboxycyclohexyl)-5-(trifluoromethyl)pyrazole-4-carbonyl)-((3,5-difluorophenyl)methyl)amino)acetyl)-3,5-dichlorobenzoic acid] is higher in IC50: 282000 pM for the first, greater than 1e+07 pM for the second.

O=C(CN(Cc1cc(F)cc(F)c1)C(=O)c1cnn([C@H]2CC[C@H](C(=O)O)CC2)c1C(F)(F)F)c1ccccc1Cl [Example 99, trans-4-(4-((2-(2-chlorophenyl)-2-oxoethyl)-((3,5-difluorophenyl)methyl)carbamoyl)-5-(trifluoromethyl)pyrazol-1-yl)cyclohexane-1-carboxylic acid] and O=C(CN(CC1CCC(F)(F)CC1)C(=O)c1cnn([C@H]2CC[C@H](C(=O)O)CC2)c1C(F)(F)F)c1c(Cl)cncc1Cl [Example 101, trans-4-(4-((2-(3,5-dichloropyridin-4-yl)-2-oxoethyl)-((4,4-difluorocylohexyl)methyl)carbamoyl)-5-(trifluoromethyl)pyrazol-1-yl)cyclohexane-1-carboxylic acid] are within 1.5-fold of each other in IC50: 105000 pM for the first, 87100 pM for the second.
